# Test results reported in paper PMC10208956, “Microbial peptides activate tumour-infiltrating lymphocytes in glioblastoma” (Nature, 2023).
# What was measured:
# Type in all cases: cell-based, human
# [1] = tested on: sorted CD4+ PE and FITC TCRVβ+ TILs; assay: Proliferation of TCRBV-sorted CD4+ TILs (without TCRBV6.1 and TCRBV6.2); details: sheet 6b
# Description: TILs expressing specific TCRBVs were isolated from bulk TILs using a panel of 22 fluorescently labelled TCRBV antibodies that detect 27 different TCRBVs. Twelve TCRBV antibodies were labelled with PE and 10 with FITC (Beckman Coulter). […] After another wash, cells were stained with CD4 (1:100) (APC anti-human CD4, eBioscience), CD8 (1:100) (Pacific blue anti-human CD8, BioLegend), TCRBV-PE (1:25) (Beckman Coulter) and TCRBV-FITC (1:25) (Beckman Coulter) antibodies (Supplementary Table 12) for 30 min. Finally, cells were sorted, seeded at 5 × 10^4 cells per well in T cell medium without h-IL-2 and rested for 1 day before stimulation with 2 × 10^5 cells per well of irradiated autologous PBMCs (45 Gy) and peptide (10 µM).
# Two populations of CD4^+ PE-TCRVβ^+ and CD4^+ FITC-TCRVβ^+ were sorted and later mixed together. […] Specific amount of each cytokine/chemokine (pg/ml) was calculated by subtracting the cytokines in the negative control cultures (no peptide control). Source data
# [2] = tested on: autologous glioblastoma cells; assay: T cell cytotoxicity assay of TCC88 against the autologous tumour cell line; details: TCC88 stimulated with 2 µM peptide for 72 h; E:T 1:1 and 5:1; 24 h; duplicates; Fig. 3f
# Description: Fig. 3 Bacteria-derived and microbiota-derived peptides can stimulate TCC88 as well as the tumour antigen. a, Peptides with the highest predicted stimulatory scores were identified by searching various databases (see Methods). Numbers of unique 10-mer peptides within each database, synthesized peptides, TCC88 stimulatory peptides and the corresponding percentage of stimulatory peptides within each database are shown. […] Cytokine and chemokine secretion of TCC88 was examined and compared upon stimulation with these three different antigens. A specific amount of each cytokine and chemokine (pg ml^−1) was calculated by subtracting the cytokines in the negative control cultures (no peptide control). f, Cytotoxicity of TCC88 against the autologous tumour cell line after stimulation with 2 µM of SIN3A* and HGM3 (data represent the mean percentage of two replicate wells). E:T, effector to target. g, TCC88 was tested with HGM3 (10 µM) or SIN3A* (10 µM) peptides or both together (each 10 µM), and ^3H-thymidine incorporation was measured after 3 days (data represent the mean SI value of three replicate wells ± s.e.m.). Also see Extended Data Figs. 3 and 4. Source data […]
# TCC88 = assay: Cytokine and chemokine secretion of TCC88 after peptide stimulation; details: TCC88 supernatant after peptide stimulation; no peptide control subtracted; Fig. 3e
# Description: Fig. 3 Bacteria-derived and microbiota-derived peptides can stimulate TCC88 as well as the tumour antigen. a, Peptides with the highest predicted stimulatory scores were identified by searching various databases (see Methods). Numbers of unique 10-mer peptides within each database, synthesized peptides, TCC88 stimulatory peptides and the corresponding percentage of stimulatory peptides within each database are shown. […] Cytokine and chemokine secretion of TCC88 was examined and compared upon stimulation with these three different antigens. A specific amount of each cytokine and chemokine (pg ml^−1) was calculated by subtracting the cytokines in the negative control cultures (no peptide control). f, Cytotoxicity of TCC88 against the autologous tumour cell line after stimulation with 2 µM of SIN3A* and HGM3 (data represent the mean percentage of two replicate wells). E:T, effector to target. g, TCC88 was tested with HGM3 (10 µM) or SIN3A* (10 µM) peptides or both together (each 10 µM), and ^3H-thymidine incorporation was measured after 3 days (data represent the mean SI value of three replicate wells ± s.e.m.). Also see Extended Data Figs. 3 and 4. Source data
# Supernatants from each experiment were harvested a day before adding thymidine and frozen at −20 °C. Cytokines were measured using ELISA for human IFNγ ELISA MAX (BioLegend), human GM-CSF DuoSet ELISA (R&D Systems) and bead-based assays. A Synergy H1 hybrid multi-mode reader (Agilent) was used to measure the absorbance. The LEGENDplex Multi-analyte Flow Assay kit (BioLegend) is a 13-plex human TH cytokine panel, which includes IFNγ, TNF, IL-2, IL-4, IL-5, IL-6, IL-9, IL-10, IL-13, IL-17A, IL-17F, IL-21 and IL-22. […] LSR Fortessa Flow Cytometer (BD Biosciences) was used to measure cytokines, and data were analysed using FlowJo (Tree Star). The Human XL Cytokine Luminex Performance Assay Fixed Panel (R&D Systems) contains 45 analytes covering a broad range of various chemokines and cytokines.
substance,measurement,setting,value
Ac-LLEFNHSLGM-NH2 [HGM3],Proliferation (SI) of sorted CD4+ TILs,[1]; replicate 1,1.141
same,Proliferation (SI) of sorted CD4+ TILs,[1]; replicate 2,1.14
same,Proliferation (SI) of sorted CD4+ TILs,[1]; replicate 3,1.525
same,cytotoxic activity against autologous glioblastoma cells (in words),[2],comparable
same,CCL20/MIP-3α,TCC88,6.47 pg/mL
same,CD40 Ligand,TCC88,1548.01 pg/mL
same,CXCL1/GROα,TCC88,80.23 pg/mL
same,CXCL2/GROβ,TCC88,106.77 pg/mL
same,CXCL8/IL-8,TCC88,0 pg/mL
same,CXCL10/IP-10,TCC88,30.99 pg/mL
same,Flt-3 Ligand,TCC88,108.26 pg/mL
same,Fractalkine,TCC88,325.67 pg/mL
same,GM-CSF,TCC88,4861.7 pg/mL
same,Granzyme B,TCC88,2019.57 pg/mL
same,IFN-α,TCC88,2.54 pg/mL
same,IFN-γ,TCC88,781.13 pg/mL
same,IL-1rα,TCC88,2003.66 pg/mL
same,IL-1α,TCC88,12.29 pg/mL
same,IL-1β,TCC88,17.76 pg/mL
same,IL-2,TCC88,80.09 pg/mL
same,IL-3,TCC88,109.49 pg/mL
same,IL-4,TCC88,85.48 pg/mL
same,IL-5,TCC88,32.99 pg/mL
same,IL-6,TCC88,151.16 pg/mL
same,IL-7,TCC88,0.74 pg/mL
same,IL-10,TCC88,3974.26 pg/mL
same,IL-12p70,TCC88,26.12 pg/mL
same,IL-13,TCC88,1591.43 pg/mL
same,IL-15,TCC88,2.07 pg/mL
same,IL-17A,TCC88,1.97 pg/mL
same,IL-17E/IL-25,TCC88,0 pg/mL
same,IL-33,TCC88,17.4 pg/mL
same,TNF-α,TCC88,4132.48 pg/mL
